Literature values as cited in PMC11187573, “Identification of SARS-CoV-2 Mpro inhibitors through deep reinforcement learning for de novo drug design and computational chemistry approaches” (RSC Medicinal Chemistry, 2024).

System: Mpro
Details: ML dataset, Origin COVID_Moonshot; ref COVID Moonshot; cited from earlier work
For `O=C(NCCc1cccc(F)c1)C(c1cccnc1)N(C(=O)c1cocn1)c1ccc2ncsc2c1` (stereo not drawn) [ALP-POS-ced8ea4d-24], the IC50 is listed as 60.5 µM.
In the case of `Cc1ccc(N(C(=O)c2cocn2)C(C(=O)NCCc2cccc(F)c2)c2cccnc2)cc1` (stereo not drawn) [ALP-POS-ced8ea4d-27], the IC50 is listed as 50.2 µM.
For `O=C(NCCc1cccc(F)c1)C(c1cccnc1)N(C(=O)c1cocn1)c1ccccc1` (stereo not drawn) [ALP-POS-ced8ea4d-28], the IC50 is given as 89.2 µM.
In the case of `O=C(NCCc1cccc(F)c1)C(c1cccnc1)N(C(=O)c1cocn1)c1ccc(OC2CCOC2)cc1` (stereo not drawn) [ALP-POS-ced8ea4d-32], the IC50 is given as 6.32 µM.
In the case of `O=C(NCCc1cccc(F)c1)C(c1cccnc1)N(C(=O)c1cocn1)c1cn(Cc2ccccc2)cn1` (stereo not drawn) [ALP-POS-ced8ea4d-35], the IC50 is given as 27.3 µM.
In the case of `O=C(NCCc1cccc(F)c1)C(c1cccnc1)N(C(=O)c1cocn1)c1ccc2scnc2c1` (stereo not drawn) [ALP-POS-ced8ea4d-36], the IC50 is given as 84 µM.
In the case of `O=C(NCCc1cccc(F)c1)C(c1cccnc1)N(C(=O)c1cocn1)c1ccc(C(F)(F)F)nc1` (stereo not drawn) [ALP-POS-ced8ea4d-37], the IC50 is given as 36.4 µM.
In the case of `O=C(NCCc1cccc(F)c1)C(c1cccnc1)N(C(=O)c1cocn1)c1cnc(C2CCC2)nc1` (stereo not drawn) [ALP-POS-ced8ea4d-63], the IC50 is given as 69.1 µM.
For `CCOc1ccc(N(C(=O)c2cocn2)C(C(=O)NCCc2cccc(F)c2)c2cccnc2)cc1` (stereo not drawn) [ALP-POS-ced8ea4d-67], the IC50 is given as 15.5 µM.
In the case of `Cc1ccncc1C(C(=O)NCCc1cccc(F)c1)N(C(=O)c1cocn1)c1ccc(C(C)(C)C)cc1` (stereo not drawn) [ALP-POS-d0876c20-1], the IC50 is given as 0.653 µM.
In the case of `CC(C)(C)c1ccc(N(C(=O)c2cocn2)C(C(=O)NCCc2cccc(F)c2)c2ccnnc2)cc1` (stereo not drawn) [ALP-POS-d0876c20-5], the IC50 is listed as 2.05 µM.
In the case of `COc1nccnc1C(C(=O)NCCc1cccc(F)c1)N(C(=O)c1cocn1)c1ccc(C(C)(C)C)cc1` (stereo not drawn) [ALP-POS-d0876c20-15], the IC50 is given as 94.9 µM.
In the case of `CC(C)(C)c1ccc(N(C(=O)c2cocn2)C(C(=O)NCCc2cccc(F)c2)c2cncnc2)cc1` (stereo not drawn) [ALP-POS-d0876c20-17], the IC50 is given as 2.92 µM.
In the case of `COc1ncncc1C(C(=O)NCCc1cccc(F)c1)N(C(=O)c1cocn1)c1ccc(C(C)(C)C)cc1` (stereo not drawn) [ALP-POS-d0876c20-19], the IC50 is listed as 8.43 µM.
In the case of `CC(C)(C)c1ccc(N(C(=O)c2cocn2)C(C(=O)NCCc2cccc(F)c2)c2cnccn2)cc1` (stereo not drawn) [ALP-POS-d0876c20-21], the IC50 is given as 1.21 µM.
In the case of `CN(C)c1ccc(N(Cc2ccsc2)C(=O)Cn2nnc3ccccc32)cc1` [ALP-POS-d2866bdf-1], the IC50 is listed as 3.58 µM.
In the case of `O=C(NCCc1cccc(F)c1)C(c1cccnc1)N(C(=O)c1cnc[nH]1)c1ccc(OC2CCOC2)cc1` (stereo not drawn) [ALP-POS-e980f4ea-32], the IC50 is listed as 25.8 µM.
For `O=C(COc1cccc(Cl)c1)Nc1cncc2ccccc12` [ALP-POS-f13221e1-2], the IC50 is given as 8.59 µM.
In the case of `O=C(CC1(C(=O)Nc2cncc3ccccc23)CCOc2ccc(Cl)cc21)N1CCN(CC(F)(F)CO)CC1` (stereo not drawn) [ALP-UNI-8e43a71e-10], the IC50 is listed as 7.28 µM.
In the case of `O=C(Nc1cncc2ccccc12)C1CCNc2cc(Cl)c(Cl)cc21` (stereo not drawn) [ALP-UNI-3735e77e-4], the IC50 is given as 0.154 µM.
For `O=C(Nc1cncc2ccccc12)C1CCN(Cc2cnc[nH]2)c2ccc(Cl)cc21` (stereo not drawn) [ALP-UNI-b33a865d-1], the IC50 is given as 1.12 µM.
For `Cn1nncc1CC(=O)NC(c1ccccc1)c1nc2ccccc2n1C` (stereo not drawn) [BAR-COM-4e090d3a-6], the IC50 is listed as 35.7 µM.
In the case of `O=C(c1cc(=O)[nH]c2ccccc12)N1CCN(Cc2ccccc2)CC1` [BEN-DND-7e92b6ca-10], the IC50 is listed as 13.8 µM.
In the case of `COc1cccc(N2CCN(C(=O)c3cc(=O)[nH]c4ccccc34)CC2)c1` [BEN-DND-7e92b6ca-12], the IC50 is given as 13.6 µM.
For `COc1ccccc1N1CCN(C(=O)c2cc(=O)[nH]c3ccccc23)CC1` [BEN-DND-7e92b6ca-13], the IC50 is given as 32.8 µM.
In the case of `O=C(c1cc(=O)[nH]c2ccccc12)N1CCN(c2ccc(F)cc2)CC1` [BEN-DND-7e92b6ca-14], the IC50 is listed as 34.6 µM.
In the case of `O=C(Nc1cncc2ccccc12)N1CCOc2ccc(Cl)cc21` [BEN-DND-f2e727cd-1], the IC50 is listed as 11.4 µM.
For `O=C(NCCc1cccc(F)c1)C(c1cccnc1)N(C(=O)c1c[nH]cn1)c1ccc(OC(F)F)cc1` (stereo not drawn) [BRU-THA-92256091-16], the IC50 is listed as 22.1 µM.
In the case of `COc1ccc(N(C(=O)c2c[nH]cn2)C(C(=O)NCCc2cccc(F)c2)c2cccnc2)cc1` (stereo not drawn) [BRU-THA-92256091-19], the IC50 is listed as 93.7 µM.
In the case of `CS(=O)(=O)Cc1ccc(N(C(=O)c2c[nH]cn2)C(C(=O)NCCc2cccc(F)c2)c2cccnc2)cc1` (stereo not drawn) [BRU-THA-92256091-20], the IC50 is given as 41.1 µM.
For `COCc1ccc(N(C(=O)c2c[nH]cn2)C(C(=O)NCCc2cccc(F)c2)c2cccnc2)cc1` (stereo not drawn) [BRU-THA-92256091-23], the IC50 is listed as 62.9 µM.
In the case of `O=C(NCCc1cccc(F)c1)C(c1cccnc1)N(C(=O)c1c[nH]cn1)c1ccc(C2COC2)cc1` (stereo not drawn) [BRU-THA-92256091-80], the IC50 is listed as 22.7 µM.
In the case of `O=C(NCCc1cccc(F)c1)C(c1cccnc1)N(C(=O)c1c[nH]cn1)c1ccc(Cn2cccn2)cc1` (stereo not drawn) [BRU-THA-92256091-86], the IC50 is given as 35.5 µM.
In the case of `COc1ccc(N(Cc2cccc(Cl)c2)C(=O)Cn2nnc3ccccc32)cc1` [CHO-MSK-00c5269a-2], the IC50 is listed as 3.4 µM.
For `O=C(Cn1nnc2ccccc21)N(Cc1cccc(Cl)c1)c1ccc(N2CCCCC2)cc1` [CHO-MSK-00c5269a-5], the IC50 is given as 4.83 µM.
In the case of `Cc1ccncc1NC(=O)Cc1cc(Cl)cc(OCc2nnc(C3CCCCC3)o2)c1` [CHO-MSK-6e55470f-7], the IC50 is given as 17 µM.
In the case of `O=C(Nc1cnccc1Cl)c1cc(Cl)ccc1O` [CHR-SOS-7098f804-10], the IC50 is listed as 24.2 µM.
In the case of `O=C(Nc1cccnc1)c1cc(Cl)ccc1-c1ccccc1` [CHR-SOS-7098f804-14], the IC50 is listed as 39.1 µM.
For `N#Cc1cccc(NC(=O)Nc2cncc(N)c2)c1` [DAR-DIA-23aa0b97-8], the IC50 is listed as 54.3 µM.
For `N#Cc1cccc(NC(=O)Nc2c[nH]c3ncccc23)c1` [DAR-DIA-23aa0b97-11], the IC50 is listed as 63.6 µM.
For `CC(=O)NC(C)c1cc(F)cc(Cl)c1` (stereo not drawn) [DAV-CRI-3edb475e-6, Mpro-x10172], the IC50 is listed as 24.4 µM.
For `Cc1ccncc1NC(=O)N(Cc1ccccc1)c1cccc(Cl)c1` [EDG-MED-0da5ad92-20], the IC50 is listed as 22.9 µM.
For `O=C(Nc1cncc2[nH]c(=O)[nH]c12)C1CCOc2ccc(Cl)cc21` (stereo not drawn) [EDG-MED-0e5afe9d-2], the IC50 is listed as 62.8 µM.
In the case of `NS(=O)(=O)c1[nH]ncc1C(=O)NC[C@@]1(C(=O)Nc2cncc3ccccc23)CCOc2ccc(Cl)cc21` [EDJ-MED-4c7486ba-8], the IC50 is listed as 1.99 µM.
For `COCC1(C(=O)Nc2cncc3ccccc23)CCOc2cc(Cl)c(Cl)cc21` (stereo not drawn) [EDJ-MED-37aac4bd-2], the IC50 is listed as 4.04 µM.
In the case of `O=C(Cc1cccc(Cl)c1)Nc1cncc2c1OCCC2` [EDJ-MED-976da9a6-1], the IC50 is listed as 10.9 µM.
For `Cc1ccncc1N1CCC(c2cccc(Cl)c2)S1(=O)=O` (stereo not drawn) [EDJ-MED-49816e9b-4], the IC50 is listed as 76.6 µM.
For `Cc1cc(C(F)(F)F)nc2n[nH]c(NC(=O)Cc3cccc(Cl)c3)c12` [EDJ-MED-c8e7a002-5], the IC50 is given as 90.7 µM.
For `O=C(Cc1cccc(Cl)c1)Nc1n[nH]c2ccc(F)cc12` [EDJ-MED-c8e7a002-9], the IC50 is given as 94 µM.
In the case of `O=C(Cc1cccc(Cl)c1)Nc1[nH]nc2cccc(F)c12` [EDJ-MED-c8e7a002-13], the IC50 is listed as 90.6 µM.

Same assay, conditions: ML dataset, Origin ChEMBL; ref ChEMBL; cited from earlier work
In the case of `C[C@H]1COc2c(N3CCN(C)CC3)c(F)cc3c(=O)c(C(=O)O)cn1c23` [CHEMBL33], the IC50 is listed as 7.6 µM.
In the case of `O=C(O)c1ccc(S(=O)(=O)c2cc(Br)c(O)c(Br)c2)cc1` [CHEMBL212240], the IC50 is given as 16 µM.
For `Nc1ncc(S(=O)(=O)c2ccc(Cl)cc2)c(N)n1` [CHEMBL213581], the IC50 is given as 6 µM.
For `O=S(=O)(Cc1[nH]c(-c2ccc(Cl)s2)c[s+]1)c1cccs1` [CHEMBL215733], the IC50 is given as 18 µM.
In the case of `O=C(Oc1cncc(Br)c1)c1ccco1` [CHEMBL222234, O=C(c1ccco1)Oc1cc(Br)cnc1, reference compound], the IC50 is given as 0.05 µM.
For `O=C(Oc1cncc(Cl)c1)c1cscn1` [CHEMBL222628, O=C(c1cscn1)Oc1cc(Cl)cnc1, reference compound], the IC50 is given as 0.27 µM.
For `O=C(Oc1cncc(Cl)c1)c1ccc(-c2ccc(Cl)cc2)o1` [CHEMBL222769, O=C(c1ccc(-c(cc2)ccc2Cl)o1)Oc1cc(Cl)cnc1, reference compound], the IC50 is given as 0.063 µM.
In the case of `O=C(Oc1cncc(Cl)c1)c1ccco1` [CHEMBL222840, O=C(c1ccco1)Oc1cc(Cl)cnc1, reference compound], the IC50 is given as 0.06 µM.
For `O=C(Oc1cncc(Cl)c1)c1cc2ccccc2s1` [CHEMBL222893, O=C(c1cc(cccc2)c2s1)Oc1cc(Cl)cnc1, reference compound], the IC50 is given as 0.095 µM.
In the case of `O=C(Oc1cncc(Cl)c1)c1cc2ccccc2[nH]1` [CHEMBL225515, O=C(c1cc(cccc2)c2[nH]1)Oc1cc(Cl)cnc1, reference compound], the IC50 is given as 0.065 µM.
For `Cn1sc(=O)n(Cc2ccccc2)c1=O` [CHEMBL284861, CN(C(N1Cc2ccccc2)=O)SC1=O, reference compound], the IC50 is listed as 0.14 µM.
For `Cc1nn(C)c(NCc2ccc(-c3cccs3)s2)c1[N+](=O)[O-]` [CHEMBL375130], the IC50 is listed as 20 µM.
For `CSc1[nH]nc(NC(=O)c2cccs2)c1S(=O)(=O)c1ccccc1` [CHEMBL378700], the IC50 is given as 15 µM.
For `O=[N+]([O-])c1cc(C(F)(F)F)ccc1S(=O)(=O)c1ccc(Cl)cc1` [CHEMBL380403], the IC50 is listed as 12 µM.
For `O=C(Oc1cncc(Cl)c1)c1cc2ccccc2o1` [CHEMBL426898, O=C(c1cc(cccc2)c2o1)Oc1cc(Cl)cnc1, reference compound], the IC50 is listed as 0.17 µM.
In the case of `Cc1noc(NC(=O)c2ccc(-c3cc(C(F)(F)F)nn3C)s2)c1[N+](=O)[O-]` [CHEMBL427404, Cc1noc(NC(c2ccc(-c3cc(C(F)(F)F)nn3C)s2)=O)c1[N+]([O-])=O, reference compound], the IC50 is listed as 5 µM.
In the case of `Nc1ccc2cc3ccc(N)cc3nc2c1` [CHEMBL465704, CHEMBL55400], the IC50 is given as 0.595 µM.
For `CC[C@H](CO)Nc1nc(NCc2ccc(-c3ccccn3)cc2)c2ncn(C(C)C)c2n1` [CHEMBL518800, CC[C@H](CO)Nc1nc(NCc(cc2)ccc2-c2ncccc2)c2ncn(C(C)C)c2n1, reference compound], the IC50 is listed as 0.84 µM.
In the case of `C/N=c1/nc(-c2ccccc2)n(-c2ccccc2)s1` [CHEMBL1188627, C/N=C(/N=C1c2ccccc2)\SN1c1ccccc1, reference compound], the IC50 is given as 0.98 µM.
In the case of `Cc1ccc(C)c(-n2sc3cc(F)ccc3c2=O)c1` [CHEMBL1725120, Cc1cc(N2Sc(cc(cc3)F)c3C2=O)c(C)cc1, reference compound], the IC50 is given as 0.02 µM.
In the case of `CCOC(=O)Cc1ccc(-c2ccccc2)cc1` [CHEMBL1886408, CCOC(Cc(cc1)ccc1-c1ccccc1)=O, reference compound], the IC50 is given as 0.2 µM.
For `Cc1ccc(-n2sc(=O)n(Cc3ccc(F)cc3)c2=O)cc1` [CHEMBL1917204, Cc(cc1)ccc1N(C(N1Cc(cc2)ccc2F)=O)SC1=O, reference compound], the IC50 is given as 0.19 µM.
